Experimental findings from patent US10266539B2, “Polymorph of Syk inhibitors” (Gilead Connecticut, Inc., priority 2013, dated 2019) are described below.

Series [1] is described as follows: Moisture sorption isotherms (Example 6B, Hiden IGASorp / SMS DVS Intrinsic). The following applies: for Water absorbed up to 90% RH: 25 °C. The format is physicochemical. As for the experimental part:
Sorption isotherms were obtained using a Hiden IGASorp moisture sorption analyser, controlled by CFRSorp software. The sample temperature was maintained at 25° C. by a Huber re-circulating water bath. The humidity was controlled by mixing streams of dry and wet nitrogen, with a total flow rate of 250 ml/min. The relative humidity (RH) was measured by a calibrated Vaisala RH probe (dynamic range of 0-95% RH), located near the sample. The weight change, (mass relaxation) of the sample as a function of % RH was constantly monitored by the microbalance (accuracy±0.001 mg).
10-20 mg of sample was placed in a tared mesh stainless steel basket under ambient conditions. The sample was loaded and unloaded at 40% RH and 25° C. (typical room conditions).
A moisture sorption isotherm was performed as outlined in Table 1 below (2 scans giving 1 complete cycle). The standard isotherm was performed at 25° C. at 10% RH intervals over a 0-90% RH range.
The software uses a least squares minimization procedure together with a model of the mass relaxation, to predict an asymptotic value. The measured mass relaxation value must be within 5% of that predicted by the software, before the next % RH value is selected. The minimum equilibration time was set to 1 hour and the maximum to 4 hours. […] The sample was recovered after completion of the isotherm and re-analyzed by XRPD.
In other cases, sorption isotherms were also obtained using a SMS DVS Intrinsic moisture sorption analyser, controlled by DVS Intrinsic Control software v1.0.1.2 (or v 1.0.1.3). […] The humidity was controlled by mixing streams of dry and wet nitrogen, with a total flow rate of 200 ml/min The relative humidity was measured by a calibrated Rotronic probe (dynamic range of 1.0-100% RH), located near the sample. The weight change, (mass relaxation) of the sample as a function of % RH was constantly monitored by the microbalance (accuracy±0.005 mg).
5-20 mg of sample was placed in a tared mesh stainless steel basket under ambient conditions. […] The sample was recovered after completion of the isotherm and re-analyzed by XRPD.

Series [2] is described as follows: PK study in pentagastrin- or famotidine-pretreated dogs. The following applies: famotidine-pretreated dogs, similar tablet formulation.
Procedure: Pentagastrin pretreatment (6 μg/kg intramuscular injection 30 minutes prior to test formulation dosing) in fasted dogs was used to simulate fasting gastric pH in humans. Famotidine pretreatment (20 mg orally 1 hour prior to test formulation dosing) in fasted dogs was used to simulate human gastric pH when acid suppressant was co-dosed with test formulation. The tablets of the mono-MSA salt or bis-MSA salt of a compound of Formula I (conventional tablet and spray dried formulation) were orally administered followed by a 30 mL water flush.
The next series can be described thus: Solubility in water. The format is physicochemical. The following applies: final pH of the water solubility sample.
Series [3] in a line: Hygroscopicity by dynamic vapor sorption (Example 6A, Q5000SA). The format is physicochemical. The following applies: after full sorption/desorption cycle. As for the experimental part: Hygroscopicity of polymorph Form 3 and polymorph Form 7 at 25° C. was determined by dynamic vapor sorption (DVS) using an automated vapor sorption balance (Q5000SA; TA instruments, New Castle, Del.). Hygroscopicity was studied as a function of relative humidity (RH) over the range of 0 to 90%. Approximately 10 mg of solid sample was placed directly onto the 13 mm quartz DVS sample cup and equilibrated at 0% relative humidity (RH) until a constant weight was achieved. After equilibration, the RH was increased in increments of 10% to reach 90%, and the water sorption was monitored. For desorption, the relative humidity was deceased in a similar manner to accomplish a full sorption/desorption cycle.
For all experiments, the instrument was operated in dm/dt mode (mass variation over time) to determine when equilibrium was reached. A fixed dm/dt value of 0.0010% min^−1 was selected for all RH segments. A maximum stage of 360 minutes and a minimum stage of 60 minutes were selected for these experiments.

For the molecule `c1cn2cc(-c3ccc4cn[nH]c4c3)nc(Nc3ccc(N4CCOCC4)cc3)c2n1` [polymorph Form 3], the “Water absorbed up to 90% RH” value in series [1] (listed as Form 3) is listed as around 20 wt. %. Besides, the “Form by XRPD after DVS analysis” value in series [1] (after isotherm) is listed as “converted to Form 7”. Moreover, the “Increase of AUC0-24 compared to the mono-MSA salt formulation” value in series [2] is “more than 10 fold”. In addition, the “final pH” value in “Solubility in water” was “(final pH <1.5)”. Also, the “Form by XRPD at the end of the DVS experiment” value in series [3] is listed as “converted to Form 7”.
Take `c1cn2cc(-c3ccc4cn[nH]c4c3)nc(Nc3ccc(N4CCOCC4)cc3)c2n1` [polymorph Form 7]: the “Water absorbed up to 90% RH” value in series [1] (listed as Polymorph Form 7) was around 21 wt. %.
